# Experimental data taken from ChEMBL document CHEMBL1127894, “The synthesis of 2,2,24- trisubstituted oxetanes as new azole antifungal agents” (1994).
# Active and inactive are the calls of the source. The rule behind the calls is not given here.
# Assays:
# Mus musculus [1] = assay: Compound was tested for in vivo activity against 1x 10ex6 CFU of Candida albicans C-43 infected mice at dose of 10 mg/kg; Inactive; type: functional, organism-based; parameters: dose 10 mg/kg
# Candida albicans [2] = assay: Tested for inhibition of yeast to mycelial transformation against six strains of Candida albicans at concentration of 16->64 ug/mL at pH 7.0; Slightly active; type: functional, organism-based
# Candida parapsilosis [3] = assay: Minimum inhibitory concentration against two strains of C. parapsilosis; Inactive; type: functional, organism-based
# Candida albicans [4] = assay: Tested for inhibition of yeast to mycelial transformation against Candida albicans C-43 at concentration of 16->64 ug/mL at pH 7.0; Slightly active; type: functional, organism-based
# Candida albicans [5] = assay: Tested for inhibition of yeast to mycelial transformation against Candida stellatoidea at concentration of 16->64 ug/mL at pH 7.0; Slightly active; type: functional, organism-based
# Candida parapsilosis [6] = assay: Minimum inhibitory concentration against two strains of Candida parapsilosis; type: functional; details: Lodderomyces parapsilosis
# Mus musculus [7] = assay: Compound was tested for percent survival against Candida albicans C-43 at 50 mg/kg (iv) in mice; type: functional
# Mus musculus [8] = assay: Compound was tested for in vivo activity against Candida albicans C-43 in mice at dose of 10 mg/kg; Inactive; type: functional, organism-based; parameters: dose 10 mg/kg
# Candida albicans [9] = assay: Tested for inhibition of yeast to mycelial transformation against six strains of Candida albicans at concentration of <0.03 ug/mL at pH 7.0; Active; type: functional, organism-based
# Mus musculus [10] = assay: Compound was tested for in vivo activity against Candida albicans C-43 in mice; type: functional
# Candida albicans [11] = assay: Tested for inhibition of yeast to mycelial transformation against Candida stellatoidea at concentration of <0.03 ug/mL at pH 7.0; Active; type: functional, organism-based
# Candida albicans [12] = assay: Tested for inhibition of yeast to mycelial transformation against Candida albicans C-43 at concentration of <0.03 ug/mL at pH 7.0; Active; type: functional, organism-based
# Candida albicans [13] = assay: Tested for inhibition of yaest to mycelial transformation against Candida albicans C-43 at concentration of <0.03 ug/mL at pH 7.0; Active; type: functional, organism-based
# Candida albicans [14] = assay: In vitro inhibition of yeast to mycelial transformation against Candida stellatoidea at concentration of <0.03 ug/mL at pH 7.0; Active; type: functional, organism-based
# Candida albicans [15] = assay: In vitro inhibition of yeast to mycelial transformation against Candida albicans C-43 at concentration of <0.03 ug/mL at pH 7.0; Active; type: functional, organism-based
# Candida albicans [16] = assay: In vitro inhibition of yeast to mycelial transformation against six strains of Candida albicans at concentration of <0.03 ug/mL at pH 7.0; Active; type: functional, organism-based
# Mus musculus [17] = assay: Geometri mean CFUs(log 10) for Candida albicans infected mice treated with 50 mg/kg of compound; type: functional
Structure (SMILES),Activity (Mus musculus [1]),MIC (Candida parapsilosis [6]) [µg/mL],survival at 50 mg/kg (Mus musculus [7]) [%],Activity (Candida albicans [9]),Activity (Candida albicans [11]),further results
CC(C)N1CCN(c2ccc(OC[C@@H]3C[C@@](Cn4cncn4)(c4ccc(Cl)cc4Cl)O3)cc2)CC1 (relative stereo),inactive,,,,,
CC(C)N1CCN(c2ccc(OC[C@H]3C[C@@](Cn4cncn4)(c4ccc(Cl)cc4Cl)O3)cc2)CC1 (racemic),,,,,,Activity (Candida albicans [2]): Weak activity; MIC (Candida parapsilosis [3]): inactive; Activity (Candida albicans [4]): Weak activity; Activity (Candida albicans [5]): Weak activity
CC(C)N1CCN(c2ccc(OC[C@H]3C[C@@](Cn4cncn4)(c4ccc(Cl)cc4Cl)O3)cc2)CC1 (relative stereo),inactive,,,,,
CC(C)N1CCN(c2ccc(OC[C@@H](O)C[C@@](O)(Cn3cncn3)c3ccc(Cl)cc3Cl)cc2)CC1,,32,100,Active,Active,Activity (Mus musculus [8]): inactive; Activity (Mus musculus [10]): 4.4; Activity (Candida albicans [12]): Active
CC(C)N1CCN(c2ccc(OC[C@H](O)C[C@@](O)(Cn3cncn3)c3ccc(Cl)cc3Cl)cc2)CC1,,32,100,Active,Active,Activity (Candida albicans [13]): Active; Activity (Mus musculus [8]): inactive; Activity (Mus musculus [10]): 4.2
CC(C)N1CCN(c2ccc(OC[C@@H]3C[C@@](Cn4cncn4)(c4ccc(Cl)cc4Cl)O3)cc2)CC1 (racemic) [listing 1 of 2 here],,32,,,,
CC(C)N1CCN(c2ccc(OC[C@@H]3C[C@@](Cn4cncn4)(c4ccc(Cl)cc4Cl)O3)cc2)CC1 (racemic) [listing 2 of 2 here],,,,,,Activity (Candida albicans [14]): Active; Activity (Candida albicans [15]): Active; Activity (Candida albicans [16]): Active
CC(C)N1CCN(c2ccc(OC[C@H]3CC[C@](Cn4cncn4)(c4ccc(Cl)cc4Cl)O3)cc2)CC1,inactive,0.5,100,Active,Active,Activity (Mus musculus [17]): 4.3; Activity (Candida albicans [12]): Active
